Test results reported in patent US12043632B2, “6-heteroaryloxy benzimidazoles and azabenzimidazoles as JAK2 inhibitors” (Ajax Therapeutics, Inc., priority 2020, dated 2024).

Each compound was assayed against T1, JAK2 (JH1domain-catalytic, Y1007F,Y1008F) kinase (Homo sapiens, UniProt O60674, Y1007F/Y1008F) (assay: JAK2 JH1 Domain Binding Assay). Settings: qPCR readout.
T1 construct: JAK2 (JH1domain-catalytic, Y1007F,Y1008F) kinase was expressed as N-terminal fusion; made in house; host or cells: transiently transfected HEK293 cells
T1 sequence (O60674 849-1124 Y1007F/Y1008F limits assumed): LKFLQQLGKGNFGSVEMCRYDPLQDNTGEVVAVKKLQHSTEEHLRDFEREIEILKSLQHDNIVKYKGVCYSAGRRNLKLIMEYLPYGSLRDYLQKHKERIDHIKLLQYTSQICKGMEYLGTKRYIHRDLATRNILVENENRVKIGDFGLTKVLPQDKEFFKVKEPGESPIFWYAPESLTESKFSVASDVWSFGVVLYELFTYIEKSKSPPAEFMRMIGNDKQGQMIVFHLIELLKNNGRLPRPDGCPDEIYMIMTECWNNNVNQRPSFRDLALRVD

Compared with `Cn1c(Nc2cc(C(C)(C)C)n([C@H]3COC[C@@H]3O)n2)nc2ncc(Oc3cnn4ccnc4c3)c(Cl)c21` (single isomer, unassigned) [Example I-23], `Cn1c(Nc2cc(C(C)(C)C)n([C@@H]3COC[C@H]3O)n2)nc2ncc(Oc3cnn4ccnc4c3)c(Cl)c21` (single isomer, unassigned) [Example I-24] is higher in Kd: 0.01 to 0.05 µM for the first, 0.05 to 1 µM for the second.

`CC(O)Cn1nc(Nc2nc3ncc(Oc4cnn5ccncc45)c(Cl)c3n2C)cc1C(C)(C)C` (single isomer, unassigned) [Example I-37] and `C[C@@H](O)Cn1nc(Nc2nc3ncc(Oc4cnn5ccncc45)c(Cl)c3n2C)cc1C(C)(C)C` (single isomer, unassigned) [Example I-38] cannot be ordered by Kd: < 0.01 µM for the first, < 0.01 µM for the second.

First: Cn1c(Nc2cc(C(C)(C)C)n([C@@H]3CCOC34CC4)n2)nc2ncc(Oc3cnn4ccncc34)c(Cl)c21 (single isomer, unassigned) [Example I-41-a]
Second: Cn1c(Nc2cc(C(C)(C)C)n([C@H]3CCC[C@H]3O)n2)nc2ncc(Oc3cnn4ccncc34)c(Cl)c21 (single isomer, unassigned) [Example I-60-a]
The Kd of the first is lower: < 0.01 µM for the first, 0.01 to 0.05 µM for the second. The first binds more tightly here.

`Cn1c(Nc2cc(C(C)(C)C)n([C@@H]3CCOC34CC4)n2)nc2ncc(Oc3cnn4ccncc34)c(Cl)c21` (single isomer, unassigned) [Example I-41-b] and `Cn1c(Nc2cc(C(C)(C)C)n([C@@H]3CCC[C@@H]3O)n2)nc2ncc(Oc3cnn4ccncc34)c(Cl)c21` (single isomer, unassigned) [Example I-60-b] cannot be ordered by Kd: < 0.01 µM for the first, < 0.01 µM for the second.

Compared with `Cn1c(Nc2cc(C(C)(C)C)n(C3COCC3O)n2)nc2ncc(Oc3cnn4ccncc34)c(Cl)c21` (single isomer, unassigned) [Example I-47], `COc1c(Oc2cnn3ccncc23)cnc2nc(Nc3cc(C(C)(C)C)n([C@H]4CCC[C@H]4O)n3)n(C)c12` (single isomer, unassigned) [Example I-69-a] is higher in Kd: < 0.01 µM for the first, 0.05 to 1 µM for the second.

Compared with `Cn1c(Nc2cc(C(C)(C)C)n(C3COCC3O)n2)nc2ncc(Oc3cnn4ccncc34)c(Cl)c21` (single isomer, unassigned) [Example I-48], `COc1c(Oc2cnn3ccncc23)cnc2nc(Nc3cc(C(C)(C)C)n([C@@H]4CCC[C@@H]4O)n3)n(C)c12` (single isomer, unassigned) [Example I-69-b] is higher in Kd: < 0.01 µM for the first, 0.01 to 0.05 µM for the second. The first binds more tightly here.

`Cn1c(Nc2nc([C@H]3CCOC3)c(C(C)(C)C)s2)nc2ncc(Oc3cnn4ccnc4c3)c(Cl)c21` (single isomer, unassigned) [Example I-56-a] and `Cn1c(Nc2nc([C@@H]3CCOC3)c(C(C)(C)C)s2)nc2ncc(Oc3cnn4ccnc4c3)c(Cl)c21` (single isomer, unassigned) [Example I-56-b] fall in the same range of Kd: 0.01 to 0.05 µM for the first, 0.01 to 0.05 µM for the second.

First: Cn1c(Nc2cc(C(C)(C)C)n([C@H]3CCC[C@H]3O)n2)nc2ncc(Oc3cnn4ccncc34)c(C(F)F)c21 (single isomer, unassigned) [Example I-71-a]
Second: Cn1c(Nc2cc(C(C)(C)C)n([C@@H]3CCC[C@@H]3O)n2)nc2ncc(Oc3cnn4ccncc34)c(C(F)F)c21 (single isomer, unassigned) [Example I-71-b]
The Kd of the first is higher: 0.05 to 1 µM for the first, 0.01 to 0.05 µM for the second.

`COc1c(Oc2cnn3ccncc23)cnc2nc(Nc3cc(C4CC4)cn([C@@H]4CCCOC4)c3=O)n(C)c12` (single isomer, unassigned) [Example I-72-a] and `COc1c(Oc2cnn3ccncc23)cnc2nc(Nc3cc(C4CC4)cn([C@H]4CCCOC4)c3=O)n(C)c12` (single isomer, unassigned) [Example I-72-b] cannot be ordered by Kd: < 0.01 µM for the first, < 0.01 µM for the second.

`Cn1c(Nc2cc(C3CC3)cn([C@H]3CCCOC3)c2=O)nc2ncc(Oc3cnn4ccncc34)c(Cl)c21` (single isomer, unassigned) [Example I-73-a] and `Cn1c(Nc2cc(C3CC3)cn([C@@H]3CCCOC3)c2=O)nc2ncc(Oc3cnn4ccncc34)c(Cl)c21` (single isomer, unassigned) [Example I-73-b] cannot be ordered by Kd: < 0.01 µM for the first, < 0.01 µM for the second.

`Cn1c(Nc2cc(C(C)(C)C)n([C@H]3COC[C@@H]3O)n2)nc2ncc(Oc3cnc4cnc(C5CC5)n4c3)c(Cl)c21` (single isomer, unassigned) [Example I-76-a] and `Cn1c(Nc2cc(C(C)(C)C)n([C@@H]3COC[C@H]3O)n2)nc2ncc(Oc3cnc4cnc(C5CC5)n4c3)c(Cl)c21` (single isomer, unassigned) [Example I-76-b] fall in the same range of Kd: 0.01 to 0.05 µM for the first, 0.01 to 0.05 µM for the second.

`C[C@H](CO)Cn1cc(C2CC2)cc(Nc2nc3ncc(Oc4cnn5ccncc45)c(Cl)c3n2C)c1=O` (single isomer, unassigned) [Example I-81-a] and `C[C@@H](CO)Cn1cc(C2CC2)cc(Nc2nc3ncc(Oc4cnn5ccncc45)c(Cl)c3n2C)c1=O` (single isomer, unassigned) [Example I-81-b] cannot be ordered by Kd: < 0.01 µM for the first, < 0.01 µM for the second.

First: Cn1c(Nc2cc(C(C)(C)C)n([C@H]3COC[C@@H]3O)n2)nc2ncc(Oc3cnc4cnc(C5CC5)n4c3)c(C(F)F)c21 (single isomer, unassigned) [Example I-93-a]
Second: Cn1c(Nc2cc(C(C)(C)C)n([C@@H]3COC[C@H]3O)n2)nc2ncc(Oc3cnc4cnc(C5CC5)n4c3)c(C(F)F)c21 (single isomer, unassigned) [Example I-93-b]
The Kd of the first is lower: 0.01 to 0.05 µM for the first, 0.05 to 1 µM for the second.

`Cn1c(Nc2cc(C3CC3)cn([C@H]3CC[C@@H]3O)c2=O)nc2ncc(Oc3cnn4ccncc34)c(Cl)c21` (single isomer, unassigned) [Example I-95-a] and `Cn1c(Nc2cc(C3CC3)cn([C@@H]3CC[C@H]3O)c2=O)nc2ncc(Oc3cnn4ccncc34)c(Cl)c21` (single isomer, unassigned) [Example I-95-b] cannot be ordered by Kd: < 0.01 µM for the first, < 0.01 µM for the second.

`Cn1c(Nc2cc(C3CC3)cn([C@@H]3CC[C@@H]3O)c2=O)nc2ncc(Oc3cnn4ccncc34)c(Cl)c21` (single isomer, unassigned) [Example I-98-a] and `Cn1c(Nc2cc(C3CC3)cn([C@H]3CC[C@H]3O)c2=O)nc2ncc(Oc3cnn4ccncc34)c(Cl)c21` (single isomer, unassigned) [Example I-98-b] cannot be ordered by Kd: < 0.01 µM for the first, < 0.01 µM for the second.

`Cn1c(Nc2cc(C3CC3)cn([C@H]3CC[C@@H]3O)c2=O)nc2ncc(Oc3cnn4ccccc34)c(Cl)c21` (single isomer, unassigned) [Example I-99-a] and `Cn1c(Nc2cc(C3CC3)cn([C@@H]3CC[C@H]3O)c2=O)nc2ncc(Oc3cnn4ccccc34)c(Cl)c21` (single isomer, unassigned) [Example I-99-b] cannot be ordered by Kd: < 0.01 µM for the first, < 0.01 µM for the second.

`COc1c(Oc2cnn3ccccc23)cnc2nc(Nc3cc(C4CC4)cn([C@H]4CCCOC4)c3=O)n(C)c12` (single isomer, unassigned) [Example I-101-a] and `COc1c(Oc2cnn3ccccc23)cnc2nc(Nc3cc(C4CC4)cn([C@@H]4CCCOC4)c3=O)n(C)c12` (single isomer, unassigned) [Example I-101-b] cannot be ordered by Kd: < 0.01 µM for the first, < 0.01 µM for the second.

`COc1c(Oc2cnn3ccncc23)cnc2nc(Nc3cc(C4CC4)cn([C@@H]4CC[C@@H]4O)c3=O)n(C)c12` (single isomer, unassigned) [Example I-104-a] and `COc1c(Oc2cnn3ccncc23)cnc2nc(Nc3cc(C4CC4)cn([C@H]4CC[C@H]4O)c3=O)n(C)c12` (single isomer, unassigned) [Example I-104-b] cannot be ordered by Kd: < 0.01 µM for the first, < 0.01 µM for the second.

`Cn1c(Nc2cc(C(F)(F)F)cn([C@H]3CC[C@@H]3O)c2=O)nc2ncc(Oc3cnn4ccncc34)c(Cl)c21` (single isomer, unassigned) [Example I-105-a] was tested, and the Kd was < 0.01 µM.
